Format in all cases: cell-based, human
One data set relates to PDGFRA expression. The experiment in a line: HD-DoE 8-factor modeling experiment (stage 3), model optimized for maximum expression of PDGFRA. The note with it: FIG. 2; for factor contribution, negative impact on PDGFRA expression: model optimized for maximum expression of PDGFRA; for factor contribution, positive impact on PDGFRA expression: model optimized for maximum expression of PDGFRA at 853. The protocol:
(§1) To engineer the recipe of stage 3 of differentiation, cells were first cultured in stage 1 and stage 2 media (described in detail in US Publications 2022/0315891 and 2024/0043798). Then, 48 or 96 different combinations of effectors generated using HD-DoE compression through D-optimality were robotically prepared. The effector combinations were prepared in a basal media and were subsequently added to the cells, which were then allowed to differentiate. 3 days later RNA extraction was performed, and gene expression was obtained using quantitative PCR analysis. The data was normalized and modeled using partial least squares regression analysis to the effector design, resulting in the generation of gene-specific models, which after model tuning for maximal predictive power, provided explanation of the effectors ability to control the expression of individual genes, combinatorically, and individually. Solutions within the tested space were then further explored to address desirability.
(§2) In one 8-factor modeling experiment, the individual and combinatorial effect of CHIR99021 (a WNT pathway agonist), AGN193109 (an RA pathway antagonist), FGF-2 (FGFR pathway agonist), Purmorphamine (a SHH pathway agonist), TTNPB (an RA pathway agonist), IGF-1 (an IGF-1 pathway agonist), MHY1485 (a mTOR pathway agonist), and Sc79 (an Akt pathway agonist), on further differentiation of cells were tested. […] Sc79 had the highest negative impact on its expression with factor contribution of 30.
The highest positive contribution was from Purmorphamine with factor contribution of 21 and IGF-1 with factor contribution of 11. MHY1485 and AGN193109 had the highest negative impact with factor contribution of 21 and 23, respectively (FIG. 2). […] When the model was optimized, expression levels were observed of NKX2-2 at 1200, OLIG1 at 550, OLIG2 at 1000, PDGFRA at 500, SOX8 at 70, and SOX10 at 35 (FIG. 4).

The next data set relates to SOX10 expression. Nature of the data set: HD-DoE 8-factor modeling experiment (stage 3), model optimized for maximum expression of SOX10, qPCR gene expression. The note with it: for effect on expression of SOX10 (dynamic profile): model optimized for maximal SOX10 expression, FIG. 4; for factor contribution, positive regulatory effect on SOX10 expression: model optimized for maximum expression of SOX10 at 40. The protocol:
as §1, §2

The next data set relates to SOX8 expression. The experiment in a line: HD-DoE 8-factor modeling experiment (stage 3), model optimized for maximal expression of SOX8. The following applies: FIG. 3. How it is done:
as §1
In one 8-factor modeling experiment, the individual and combinatorial effect of CHIR99021 (a WNT pathway agonist), AGN193109 (an RA pathway antagonist), FGF-2 (FGFR pathway agonist), Purmorphamine (a SHH pathway agonist), TTNPB (an RA pathway agonist), IGF-1 (an IGF-1 pathway agonist), MHY1485 (a mTOR pathway agonist), and Sc79 (an Akt pathway agonist), on further differentiation of cells were tested. […]

Data set [1] concerns OLIG1 and NKX2-2 expression. Nature of the data set: HD-DoE 12-factor modeling experiment (stage 3), models optimized for maximal expression of OLIG1 and NKX2-2 simultaneously. The following applies: FIG. 5; for factor contribution, positive effect on upregulation of OLIG1 and NKX2-2: models optimized for OLIG1 (192) and NKX2-2 (486) simultaneously. The protocol: as §1
Another 12-factor modeling experiment was performed to study the effect of additional factors on expression level of target genes at stage 3. In this experiment, Activin A, Linoleic acid (a polyunsaturated fatty acid), DBZ (GSI-XX) (a NOTCH pathway inhibitor), ZM336372 (a c-Raf inhibitor), AZD3147 (a mTOR pathway inhibitor), PDGF-AA (a PDGF pathway agonist) and MK2206 (an Akt pathway inhibitor), along with AGN193109, TTNPB, FGF2, IGF-1, and MHY1485, were tested. According to literature, proteins such as FGF-2, IGF-1, and PDGF-AA play an important role in oligodendrocyte differentiation (Goldman and Kuypers (2015) Development 142:3983-95). Models were optimized for maximal expression of OLIG1 with expression level of 192 and NKX2-2 with expression level of 486 simultaneously. […] MK2206 with factor contribution of 19 had the highest negative impact on expression of these genes. […] To confirm the impact of identified factors on a bigger scale, the expression profile of a larger group of genes defining late oligodendrocyte progenitor population (Perlman et al. (2020) Glia 68:1291-1303; Goldman and Kuypers (2015) Development 142:3983-95; van Tilborg et al. (2018) Glia 66:221-238) was investigated. At maximal expression of OLIG1 and NKX2-2, other desired genes such as CNP, IGFBP2, MYC, and MYT-1 were highly expressed, while neuronal genes, NEUROD1, NEUROG1, and NEUROG2 had expression levels less than 30.

In the next data set the test system is MBP expression. Nature of the data set: HD-DoE 8-factor model (stage 4), optimized for maximum expression of MBP. The note with it: model optimized for MBP at 274; FIG. 6.

Where “and” joins values, the source holds several entries; their conditions need not be identical. Identical values can stand only once.

`Cc1ccc(C2=CCC(C)(C)c3ccc(C#Cc4ccc(C(=O)O)cc4)cc32)cc1` [AGN193109]: the “factor contribution, negative impact on PDGFRA expression” value in the data set on PDGFRA expression was found to be 23. Turning to `Cc1c[nH]c(-c2cnc(NCCNc3ccc(C#N)cn3)nc2-c2ccc(Cl)cc2Cl)n1` [CHIR99021], the “effect on expression of SOX10 (dynamic profile)” value (“effect on expression of SOX10” for short) in the data set on SOX10 expression is given as “positive effect”. Moreover, in the data set on SOX10 expression (FIG. 1), the “factor contribution, positive regulatory effect on SOX10 expression” value is reported as 8. Also, in the data set on PDGFRA expression, the “factor contribution, positive impact on PDGFRA expression” value is 8. Take `O=[N+]([O-])c1ccc(Nc2nc(N3CCOCC3)nc(N3CCOCC3)n2)cc1` [MHY1485]: the “factor contribution, positive effect on SOX8 expression” value in the data set on SOX8 expression is 13 and 13.2. For the same compound, in the data set with PDGFRA expression, the “factor contribution, negative impact on PDGFRA expression” value was 21. For `NC1(c2ccc(-c3nc4ccn5c(=O)[nH]nc5c4cc3-c3ccccc3)cc2)CCC1` [MK2206], in data set [1] (models optimized for OLIG1 and NKX2-2 simultaneously), the “factor contribution, negative impact on expression of OLIG1 and NKX2-2” value is given as 19.

With `c1ccc2c(Oc3nc(Nc4ccc(N5CCOCC5)cc4)c4ncn(C5CCCCC5)c4n3)cccc2c1` [Purmorphamine], the “factor contribution, positive impact on PDGFRA expression” value in the data set with PDGFRA expression was 21 and 20.6. As for `CCOC(=O)C1=C(N)Oc2ccc(Cl)cc2C1C(C#N)C(=O)OCC` (centres unmarked) [Sc79], the “factor contribution, negative impact on SOX10 expression” value with SOX10 expression (model optimized for maximum expression of SOX10, FIG. 1) was 30. Consider `N[C@@H](Cc1cc(I)c(Oc2ccc(O)c(I)c2)c(I)c1)C(=O)O` [T3], for which the “factor contribution, positive impact on MBP expression” value with MBP expression was 18.1. Turning to `C/C(=C\c1ccc(C(=O)O)cc1)c1ccc2c(c1)C(C)(C)CCC2(C)C` [TTNPB], the “effect on expression of SOX10” value in the data set on SOX10 expression is listed as “positive effect”. In the data set on SOX10 expression (FIG. 1), the “factor contribution, positive regulatory effect on SOX10 expression” value stood at 18. In addition, the “factor contribution, positive impact on PDGFRA expression” value in the data set on PDGFRA expression is listed as 0.6. Take `CCCCC/C=C\C/C=C\CCCCCCCC(=O)O` [linoleic acid]: the “factor contribution, positive effect on upregulation of OLIG1 and NKX2-2” value in data set [1] is reported as 12.

As to Dibenzazepine [DBZ], in the data set on MBP expression, the “factor contribution, positive impact on MBP expression” value turned out to be 18.1. Besides, the “factor contribution, positive effect on upregulation of OLIG1 and NKX2-2” value in data set [1] turned out to be 13; in data set [1] (listed as GSI-XX (DBZ)), 13.2. With “FGF-2: FGFR pathway agonist; naturally occurring ligand”, the “effect on expression of SOX10” value in the data set on SOX10 expression is given as “positive effect”. The “factor contribution, positive regulatory effect on SOX10 expression” value with SOX10 expression (FIG. 1) worked out at 15. On to “IGF-1: insulin-like growth factor 1; an IGF-1 pathway agonist”, for which the “factor contribution, positive effect on SOX8 expression” value in the data set with SOX8 expression is 16 and 15.6. Further, in the data set with SOX10 expression (dynamic profile analysis, decreased from 40 without IGF-1), the “expression level of SOX10 after addition of IGF-1 to the suggested recipe” value is recorded as 35. Further, in the data set with PDGFRA expression, the “factor contribution, positive impact on PDGFRA expression” value is 11 and 11.22.

With “PDGF-AA: a PDGF pathway agonist; ligand of a PDGFR”, in data set [1], the “factor contribution, positive effect on upregulation of OLIG1 and NKX2-2” value was found to be 21.

Source of the values: patent US20250304916A1, “METHODS AND COMPOSITIONS FOR GENERATING VASCULAR LEPTOMENINGEAL CELLS” (Trailhead Biosystems Inc., priority 2024, published 2025).
